The results in this text go back to patent US20090170759A1, “NEUROPROTECTIVE PEPTIDES” (priority 2007, published 2009).

One assay has as its system rat hippocampal cultures. The assay can be described thus: Neurite outgrowth assay (MAP2-FITC immunofluorescence), hippocampal cultures. It counts as cell-based. The following applies: for neurite outgrowth in rat hippocampal cultures (in words): figure legends. From the text:
(§1) Dissociated hippocampal and cortical cell cultures were established from embryonic day 18 rat fetuses as previously described (Mattson et al., 1994). Briefly, fetuses were removed via cesarean section from pregnant moms (Sprague-Dawley) anesthetized with halothane according to the AVMA Panel on Euthanasia. Pups were decapitated and the brains were removed and placed in HEPES-buffered Hank's Balanced Salt solution (HBSS; Gibco). The hippocampi and cortices were dissected out and pooled according to tissue-type. Tissue was trypsinized for 15 min (1 mg/ml trypsin-HBSS; Worthington), rinsed with fresh HBSS, incubated in trypsin inhibitor (1 mg/ml; Sigma) for 5 min, rinsed again with fresh HBSS and then triturated in 1 ml fresh HBSS with a fire-polished glass pipette. Dissociated cells were seeded at 30,000 cells/well onto poly-D-lysine coated 96-well plates (Collaborative BioScience). Each well contained 100 μl of Eagle's Minimal Essential Media (MEM; Gibco) supplemented with 26 mM NaHCO3 (Sigma), 56 mM glucose (Sigma), 15 mM KCl (Sigma), 1 mM sodium pyruvate (Sigma), 1.1 mM L-glutamine (Sigma), 10% (v/v) heat-inactivated fetal bovine serum (Hyclone), and 0.001% gentamicin sulfate (Sigma) (pH 7.4). Cells were allowed to attach for 24 h in a humidified 37° C. 5% CO2 incubator before experimental treatment. The culture media was aspirated and exchanged with fresh media every three days.
(§2) Twenty-four hours after plating, cultures were treated with vehicle (PBS+0.1% BSA), 100 ng of various growth factors (brain derived neurotrophic factor (BDNF; Promega), glial-derived neurotrophic factor (GDNF; Promega), nerve growth factor (NGF; Boehringer Mannheim), basic fibroblast growth factor (bFGF; Boehringer Mannheim), insulin-like growth factor-1 (IGF-1; Boehringer Mannheim), neurotrophin-3 (NT3; Calbiochem), neurotrophin-4 (NT4; Calbiochem), ciliary neurotrophic factor (CNTF; Calbiochem), epidermal growth factor (EGF; Calbiochem), vascular endothelial growth factor (VEGF; Calbiochem)), or rhEPO (prepared same as above; 10 fM-10 nM)). Each treatment condition was run in quadruplicate or octuplicate. On the third day in culture, the media was aspirated off and replaced with fresh media and test compound. At one week in culture, the cells were fixed with 10% phosphate-buffered formalin for 15 min, then rinsed with DPBS (Sigma) and placed in blocking serum for 30 min (horse serum; 1:50 dilution in DPBS; Vector Labs). Cultures were rinsed again with DPBS and then incubated in primary antibody for 2 hr (microtubule-associated protein-2 (MAP-2) is a selective marker for dendritic processes; anti-mouse monoclonal (Chemicon); 1:1000 dilution of MAP-2 in antibody diluent (Zymed)). Negative control wells were incubated in antibody diluent alone. Background signal was determined by blank wells (cell-free) incubated with or without antibody. Cultures were rinsed again with DPBS and then placed in fluorescein for 1 hr (FITC; anti-mouse IgG; rat adsorbed; 1:50 dilution in DPBS; Vector Labs). Cultures were rinsed a final time with DPBS and then the plates were read on a Cytofluor 4000 fluorescence plate reader. Neurite outgrowth was expressed as percent change from control (vehicle; mean fluorescence±SD).
(§3) Dissociated hippocampal and cortical cell cultures were established from embryonic day 18 rat fetuses as previously described (Mattson et al., 1994). Briefly, fetuses were removed via cesarean section from pregnant moms (Sprague-Dawley) anesthetized with halothane according to the AVMA Panel on Euthanasia. Pups were decapitated and the brains were removed and placed in HEPES-buffered Hank's Balanced Salt solution (HBSS; Gibco). The hippocampi and cortices were dissected out and pooled according to tissue-type. […]

Assay [1] concerns rat cerebral cortical cultures. Put plainly: Neurite outgrowth assay (MAP2-FITC immunofluorescence), cortical cultures. Type of assay: cell-based. Particulars: figure legends.
Text: as §1, §2, §3

On to GGTASCHFGPLTWVCKPQGG [EMP-6], for which the “neurite outgrowth in rat hippocampal cultures (in words)” value in the assay with rat hippocampal cultures is listed as “promotes neurite outgrowth”. Besides, the “neurite outgrowth in rat cerebral cortical cultures (in words)” value in assay [1] is recorded as “promotes neurite outgrowth”.
On to GGTYSCFGPLTWVCKPQGG [EMP-27], for which the “neurite outgrowth in rat hippocampal cultures (in words)” value with rat hippocampal cultures was “promotes neurite outgrowth”. In assay [1], the “neurite outgrowth in rat cerebral cortical cultures (in words)” value is reported as “promotes neurite outgrowth”.
GGTYSCHFAPLTWVCKPQGG [EMP-9]: the “neurite outgrowth in rat hippocampal cultures (in words)” value in the assay on rat hippocampal cultures is on record as “promotes neurite outgrowth”. In addition, the “neurite outgrowth in rat cerebral cortical cultures (in words)” value in assay [1] was “promotes neurite outgrowth”.
As to GGTYSCHFGPLTWVCKPQGG [EMP-1], the “neurite outgrowth in rat hippocampal cultures (in words)” value in the assay with rat hippocampal cultures was “promotes neurite outgrowth”. Moreover, the “neurite outgrowth in rat cerebral cortical cultures (in words)” value in assay [1] is listed as “promotes neurite outgrowth”.
For YCHFGPLTWVC [EMP-23], the “neurite outgrowth increase over vehicle at peak activity, hippocampal cultures” value with rat hippocampal cultures (Example 4, 10 fM-10 nM tested) was 43-46%. The “neurite outgrowth in rat hippocampal cultures (in words)” value in the assay with rat hippocampal cultures is recorded as “promotes neurite outgrowth”. Further, in assay [1], the “neurite outgrowth in rat cerebral cortical cultures (in words)” value is on record as “promotes neurite outgrowth”.
